Measured values from US9176064B2, “Bisubstrate fluorescent probes for protein kinase CK2” (University of Tartu, priority 2012, dated 2015).
One block for each compound: values may come before it. Where a SMILES comes first, the peptide text is derived from it. [ ]: non-standard residue; d: D form. The star is where a group is joined. X2 = CN(C)c1ccc2c(-c3ccc(C(=O)*)cc3C(=O)[O-])c3ccc(=[N+](C)C)cc-3oc2c1; X1 = O=C(CCCCCCCn1cnc2c(Br)c(Br)c(Br)c(Br)c21)*

Experiments:
[1] = target: T1, catalytic subunit of CK2 (CK2α) (Homo sapiens, UniProt P68400); test: Titration of fluorescent probe with CK2α (fluorescence anisotropy); format: binding
T1 sequence (P68400 1-335 limits assumed): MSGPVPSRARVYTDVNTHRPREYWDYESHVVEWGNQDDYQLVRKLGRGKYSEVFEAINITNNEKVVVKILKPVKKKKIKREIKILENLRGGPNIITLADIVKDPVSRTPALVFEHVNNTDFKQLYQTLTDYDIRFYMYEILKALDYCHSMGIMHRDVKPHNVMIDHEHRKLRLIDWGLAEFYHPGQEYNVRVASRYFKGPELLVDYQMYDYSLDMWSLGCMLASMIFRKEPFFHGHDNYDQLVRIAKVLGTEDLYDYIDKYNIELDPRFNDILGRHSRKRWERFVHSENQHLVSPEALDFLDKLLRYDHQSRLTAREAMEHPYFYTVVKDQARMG
Method: The binding of the fluorescent probe of formula VI to the catalytic subunit of protein kinase CK2 (CK2α) was studied at 0.2 nM concentration of the probe and 2-fold dilutions of CK2α in a buffer containing 50 mM HEPES (pH 7.5), 150 mM NaCl, 5 mM DTT, 0.1 mM EDTA and 0.005% tween 20 in 20 μl volumes in 384-well microplate. […] The change in fluorescence anisotropy vs kinase concentration was plotted and KD value was calculated by the application of nonlinear regression analysis to the relationship: A=Af(1−X1)+AbX1, where X1=QX2/[1+X2(Q−1)], where X2={P+KD+kE0−[(P+KD+kE0)^2−4PkE0]^1/2}/2P where A is measured anisotropy, Af is the anisotropy of free probe, Ab is the anisotropy of the probe-CK2α complex, Q is the ratio of fluorescence quantum yield of the probe-CK2α complex and the free probe, P is the concentration of the fluorescent probe, E0 is the nominal concentration of the kinase, k is the fraction of active kinase in enzyme preparation and KD is the dissociation constant of the probe-CK2α complex. Q value of 1.1 was calculated by dividing the total fluorescence intensity of the complex with the total fluorescence intensity of the free probe.

[2] = target: holoenzyme of protein kinase CK2 (CK2α + CK2β) (Homo sapiens, UniProt P68400); test: biochemical
Method: The binding of the fluorescent probe to the holoenzyme of protein kinase CK2 was studied at 0.2 nM concentration of the probe, 2-fold dilutions of CK2α and 100 nM regulatory subunit of CK2 (CK2β) in a buffer containing 50 mM HEPES (pH 7.5), 150 mM NaCl, 5 mM DTT, 0.1 mM EDTA and 0.005% tween 20 in 20 μl volumes in 384-well microplate. […] The change in fluorescence anisotropy vs kinase concentration was plotted and KD-value was calculated by the application of nonlinear regression analysis to the relationship: A=Af(1−X1)+AbX1, where X1=QX2/[1+X2(Q−1)], where X2={P+KD+kE0−[(P+KD+kE0)^2−4PkE0]^1/2}/2P where A is measured anisotropy, Af is the anisotropy of free probe, Ab is the anisotropy of the probe-CK2 holoenzyme complex, Q is the ratio of fluorescence quantum yield of the probe-CK2 holoenzyme complex and the free probe, P is the concentration of the fluorescent probe, E0 is the nominal concentration of CK2α, k is the fraction of active kinase in enzyme preparation and KD is the dissociation constant of the probe-CK2 holoenzyme complex.

[3] = target: T1, catalytic subunit of CK2 (CK2α); test: Competition experiment: displacement of fluorescent probe VI from CK2α; format: binding; settings: for Kd: calculated from I50 and KD of the probe
[4] = fluorescence anisotropy, HEPES pH 7.5, 30° C., probe X also by time gated luminescence, read-out: KD of probe-CK2α complex
[5] = CK2α 2 nM, fluorescent probe VI 3 nM
[6] = CK2α 0.8 nM, fluorescent probe VI 0.5 nM

holoenzyme of protein kinase CK2 (CK2α + CK2β), sequence (P68400 whole entry): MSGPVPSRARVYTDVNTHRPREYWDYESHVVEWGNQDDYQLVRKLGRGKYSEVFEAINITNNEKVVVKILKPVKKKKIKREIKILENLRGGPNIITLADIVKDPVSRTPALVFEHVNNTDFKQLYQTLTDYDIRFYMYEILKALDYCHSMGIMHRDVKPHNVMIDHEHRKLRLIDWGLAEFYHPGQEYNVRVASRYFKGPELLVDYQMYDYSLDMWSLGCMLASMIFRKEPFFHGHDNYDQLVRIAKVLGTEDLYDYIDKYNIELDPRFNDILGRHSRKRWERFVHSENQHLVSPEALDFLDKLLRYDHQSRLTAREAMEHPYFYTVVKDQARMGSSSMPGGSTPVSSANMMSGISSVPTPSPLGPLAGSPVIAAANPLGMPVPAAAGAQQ
holoenzyme of protein kinase CK2 (CK2α + CK2β), sequence (P67870 whole entry partner): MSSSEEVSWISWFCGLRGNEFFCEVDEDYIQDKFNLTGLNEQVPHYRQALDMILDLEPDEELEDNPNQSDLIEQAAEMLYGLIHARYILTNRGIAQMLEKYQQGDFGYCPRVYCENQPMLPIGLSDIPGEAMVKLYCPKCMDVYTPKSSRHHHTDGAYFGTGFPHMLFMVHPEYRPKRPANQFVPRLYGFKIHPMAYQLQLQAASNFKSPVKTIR

Compound: CCN1/C(=C/C=C/C=C/C2=[N+](CC)c3ccc(S(=O)(=O)[O-])cc3C2(C)C)C(C)(CCCC(=O)NCCCC[C@H](NC(=O)[C@H](CC(=O)O)NC(=O)[C@H](CC(=O)O)NC(=O)[C@H](CC(=O)O)NC(=O)[C@H](CC(=O)O)NC(=O)[C@H](CC(=O)O)NC(=O)[C@H](CC(=O)O)NC(=O)CCCCCCCCOc2nc3cc(C(=O)O)ccc3c3cnccc23)C(=O)O)c2cc(S(=O)(=O)O)ccc21 (stereo partly shown) [probe IX]
Kd [1, 4]: 0.02 nM

Compound: CCN1/C(=C/C=C/C=C/C2=[N+](CC)c3ccc(S(=O)(=O)[O-])cc3C2(C)C)C(C)(CCCC(=O)NCCCC[C@H](NC(=O)[C@H](CC(=O)O)NC(=O)[C@H](CC(=O)O)NC(=O)[C@H](CC(=O)O)NC(=O)[C@H](CC(=O)O)NC(=O)[C@H](CC(=O)O)NC(=O)[C@@H](CC(=O)O)NC(=O)CCCCCCCn2cnc3c(I)c(I)c(I)c(I)c32)C(=O)O)c2cc(S(=O)(=O)O)ccc21 (stereo partly shown) [probe VIII]
Kd [1, 4]: 0.4 nM

Compound: CN(C)c1ccc2c(-c3ccc(C(=O)NCCCC[C@H](NC(=O)[C@H](CC(=O)O)NC(=O)[C@H](CC(=O)O)NC(=O)[C@H](CC(=O)O)NC(=O)[C@H](CC(=O)O)NC(=O)[C@H](CC(=O)O)NC(=O)[C@@H](CC(=O)O)NC(=O)CCCCCCCn4cnc5c(Br)c(Br)c(Br)c(Br)c54)C(=O)O)cc3C(=O)[O-])c3ccc(=[N+](C)C)cc-3oc2c1 [probe VII] (X1-[dD]DDDDDK(X2)-OH)
Kd [1, 4]: 0.4 nM

Compound: CCN1/C(=C/C=C/C=C/C2=[N+](CC)c3ccc(S(=O)(=O)[O-])cc3C2(C)C)C(C)(CCCC(=O)NCCCC[C@H](NC(=O)[C@H](CC(=O)O)NC(=O)[C@H](CC(=O)O)NC(=O)[C@H](CC(=O)O)NC(=O)[C@H](CC(=O)O)NC(=O)[C@H](CC(=O)O)NC(=O)[C@@H](CC(=O)O)NC(=O)CCCCCCCn2cnc3c(Br)c(Br)c(Br)c(Br)c32)C(=O)O)c2cc(S(=O)(=O)O)ccc21 (stereo partly shown) [probe VI]
Kd [1, 4]: 0.4 nM | Kd [2]: 0.2 nM

Compound: CCN1/C(=C/C=C/C=C/C2=[N+](CC)c3ccc(S(=O)(=O)[O-])cc3C2(C)C)C(C)(CCCC(=O)NCCCC[C@H](NC(=O)[C@H](CC(=O)O)NC(=O)[C@H](CC(=O)O)NC(=O)[C@H](CC(=O)O)NC(=O)[C@H](CC(=O)O)NC(=O)[C@H](CC(=O)O)NC(=O)[C@@H](CC(=O)O)NC(=O)CCCCCCCn2ccc3ccc4n[se]nc4c32)C(=O)O)c2cc(S(=O)(=O)O)ccc21 (stereo partly shown) [probe X]
Kd [1]: 10 nM

IC50 [3, 5]: 11500 nM | Kd [3, 5]: 1500 nM
Compound: TBBI-AcOH

IC50 [3, 6]: 390 nM | Kd [3, 6]: 122 nM
Compound: TIBI-AcOH
